Several values for one entry are separate records, joined by “and”; a condition that tells them apart may be missing. Identical values can stand only once. Entries after “also recorded” stand apart in the source; their conditions may differ.
Key:
ClpB W543F = molecular target: T1, ClpB W543F (Escherichia coli, UniProt P63284, W543F); assay: Surface plasmon resonance, immobilized ClpB W543F; type: binding
T1 construct: made in house
Experimental: (§1) ClpB, DnaK, and the NBD of DnaK were extensively dialyzed against the SPR buffer (20-mM Hepes, pH 7.4, 150-mM NaCl, 20-mM MgCl2, 1-mM EDTA, 1-mM DTT). After dialysis, the protein concentration was determined by the Bradford method. The DBeQ–protein interactions were studied using a Biacore T200 instrument (GE Healthcare) at 25 °C. The proteins were diluted to 300 μg/ml in 10-mM sodium acetate buffer (pH 5 for ClpB DnaK or pH 4 for NBD) and immobilized on HC1500M sensor chips (Xantec) by standard amine coupling chemistry as described previously ([70]). A reference flow cell was created by ethyl(dimethylaminopropyl) carbodiimide/N-hydroxysuccinimide activation followed by quenching with 1 M ethanolamine (pH 9.0). Solvent correction curves were obtained at the beginning and end and after every 50 injection cycles by injecting varying DMSO concentrations (4.0, 4.4, 4.6, 4.8, 5.0, 5.2, 5.4, and 5.9% [v/v]). All experiments were performed using a flow rate of 30 μl/min.
(§2) Binding isotherms were obtained with the ligand diluted to different concentrations in the SPR running buffer HBSMTD (20-mM Hepes, pH 7.4, 140-mM NaCl, 20-mM MgCl2, 5% (v/v) DMSO, 0.005% (v/v) Tween-20). Replicate injections were performed for all samples, and a buffer-only injection was performed for every 12 injection cycles. To test the structural integrity of ClpB after immobilization on the sensor chips, we performed control titrations with ATPγS and adenosine. The dissociation constants determined from those experiments were ∼20 μM for ATPγS and ∼2 mM for adenosine. […] Moreover, the immobilized ClpB discriminated between a nucleotide analog and a nucleoside, which indicated an adequate structural integrity of ClpB on the sensor chips.
The resulting sensorgrams were analyzed using Biacore T200 Evaluation Software v3.0 according to the following procedure. Solvent correction curves were generated and applied to all data sets, and all sensorgrams were double-referenced by subtracting the most recent buffer blank injection. […]

[1] = system: ΔclpB E. coli expressing ClpB–YFP; assay: Viability of ΔclpB strain expressing ClpB-YFP; type: cell-based, Escherichia coli; details: 45 °C, 3 h
Experimental: E. coli MC4100, MC4100ΔclpB, dnaK103, and dnaK756 strains were used to determine an influence of DBeQ on bacterial growth and viability. Bacteria were maintained in the LB media, and in the case of the MC4100ΔclpB strain, LB was supplemented with 30 μg/ml kanamycin. All experiments were initiated by preparing overnight cultures inoculated from single colonies and grown at 37 °C. The dnaK103 and dnaK756 overnight cultures were grown at 30 °C. On the following day, the cultures were diluted 100-fold in 10 ml of LB without antibiotics and incubated at 37 °C. The culture optical density was monitored at 600 nm. When absorbance at 600 nm reached 0.4, the culture was divided into 1-ml aliquots and supplemented with 10 μl of DMSO or different concentrations of DBeQ in DMSO. The samples were immediately transferred into an incubator/shaker at temperature 37, 45, or 50 °C. Bacteria were cultured for up to 4 h with shaking (200 RPM). […] On the following day, the bacterial colonies were counted and the colony-forming units/ml were calculated.
Supplementary Figure 10. […] (Top) ClpB was detected using Western blotting. […]
(Bottom) Western blot analysis of the bacterial lysates with anti-ClpB antibody. […] The detected signals correspond to the full-length ClpB-YFP (ClpB95-YFP) and the N-terminally truncated ClpB80-YFP (1,2). […]

DnaK = molecular target: T2, DnaK (Escherichia coli, UniProt P0A6Y8); assay: Surface plasmon resonance, immobilized DnaK; type: binding
T2 construct: full-length E. coli DnaK (residues 1–638); made in house; host or cells: E. coli BL21(DE3)
Experimental: as §1, with “All experiments were performed using a flow rate of 30 μl/min.” left out
(§3) Binding isotherms were obtained with the ligand diluted to different concentrations in the SPR running buffer HBSMTD (20-mM Hepes, pH 7.4, 140-mM NaCl, 20-mM MgCl2, 5% (v/v) DMSO, 0.005% (v/v) Tween-20). […] The dissociation constants determined from those experiments were ∼20 μM for ATPγS and ∼2 mM for adenosine. […]
(§4) The resulting sensorgrams were analyzed using Biacore T200 Evaluation Software v3.0 according to the following procedure. […]

E. coli MC4100 = assay: Bacterial growth and viability, E. coli MC4100; type: cell-based, Escherichia coli
Experimental: E. coli MC4100, MC4100ΔclpB, dnaK103, and dnaK756 strains were used to determine an influence of DBeQ on bacterial growth and viability. Bacteria were maintained in the LB media, and in the case of the MC4100ΔclpB strain, LB was supplemented with 30 μg/ml kanamycin. All experiments were initiated by preparing overnight cultures inoculated from single colonies and grown at 37 °C. The dnaK103 and dnaK756 overnight cultures were grown at 30 °C. On the following day, the cultures were diluted 100-fold in 10 ml of LB without antibiotics and incubated at 37 °C. The culture optical density was monitored at 600 nm. When absorbance at 600 nm reached 0.4, the culture was divided into 1-ml aliquots and supplemented with 10 μl of DMSO or different concentrations of DBeQ in DMSO. The samples were immediately transferred into an incubator/shaker at temperature 37, 45, or 50 °C. Bacteria were cultured for up to 4 h with shaking (200 RPM). At specific time points, 100 μl of each culture was withdrawn and serially diluted in sterile 0.9% NaCl up to 10^6-fold dilution. To estimate the number of viable cells, 5 μl or 10 μl of the diluted cultures was spread on the LB-agar plate without an antibiotic. After a complete adsorption of liquid on the LB-agar surface, the plates were incubated overnight at 37 °C. On the following day, the bacterial colonies were counted and the colony-forming units/ml were calculated.

DnaK NBD = molecular target: T3, DnaK NBD (Escherichia coli, UniProt P0A6Y8); assay: Surface plasmon resonance, immobilized DnaK NBD; type: binding
T3 construct: the NBD of E. coli DnaK (residues 1–388); His-tag (pET28a) (C); made in house; host or cells: E. coli BL21(DE3)
Experimental: as §1, with “All experiments were performed using a flow rate of 30 μl/min.” left out
as §3, §4

wt ClpB = molecular target: T4, wt ClpB (Escherichia coli, UniProt P63284); assay: Surface plasmon resonance, immobilized wt ClpB; type: binding
T4 construct: made in house
Experimental: as §1, §2
The resulting sensorgrams were analyzed using Biacore T200 Evaluation Software v3.0 according to the following procedure. Solvent correction curves were generated and applied to all data sets, and all sensorgrams were double-referenced by subtracting the most recent buffer blank injection. The signal immediately before injection stop of these corrected sensorgrams was treated as the binding response. GraphPad Prism was used for nonlinear least-squares fitting of the model assuming either noncooperative or cooperative binding of DBeQ to DnaK and ClpB, respectively.

T4 sequence (P63284 whole entry): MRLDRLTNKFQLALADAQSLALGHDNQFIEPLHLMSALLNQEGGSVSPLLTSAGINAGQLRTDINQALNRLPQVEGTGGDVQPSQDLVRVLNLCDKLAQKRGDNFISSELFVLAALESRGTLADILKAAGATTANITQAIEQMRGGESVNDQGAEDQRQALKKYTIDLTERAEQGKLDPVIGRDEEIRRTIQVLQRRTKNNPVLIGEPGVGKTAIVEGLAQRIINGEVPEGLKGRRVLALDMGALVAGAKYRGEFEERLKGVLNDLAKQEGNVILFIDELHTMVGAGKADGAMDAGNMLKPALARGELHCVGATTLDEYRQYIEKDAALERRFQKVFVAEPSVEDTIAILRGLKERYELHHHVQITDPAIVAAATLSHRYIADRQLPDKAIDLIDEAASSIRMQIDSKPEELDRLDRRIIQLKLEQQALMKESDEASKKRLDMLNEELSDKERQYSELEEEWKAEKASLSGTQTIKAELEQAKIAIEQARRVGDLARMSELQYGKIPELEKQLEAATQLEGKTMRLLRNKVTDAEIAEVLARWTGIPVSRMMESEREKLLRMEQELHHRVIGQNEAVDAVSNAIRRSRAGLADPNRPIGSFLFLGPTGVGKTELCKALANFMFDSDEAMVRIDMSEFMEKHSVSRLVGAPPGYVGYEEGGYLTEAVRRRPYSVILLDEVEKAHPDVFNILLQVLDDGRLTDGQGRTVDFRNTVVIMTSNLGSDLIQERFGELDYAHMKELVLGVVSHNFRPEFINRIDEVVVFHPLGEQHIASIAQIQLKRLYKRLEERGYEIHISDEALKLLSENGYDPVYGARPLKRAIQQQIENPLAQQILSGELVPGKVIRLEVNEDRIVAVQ
T1 sequence (P63284 whole entry W543F, looked up): as the sequence (P63284 whole entry) above, with W543F counted along it
T2 sequence (P0A6Y8 whole entry, the tested form may be a part): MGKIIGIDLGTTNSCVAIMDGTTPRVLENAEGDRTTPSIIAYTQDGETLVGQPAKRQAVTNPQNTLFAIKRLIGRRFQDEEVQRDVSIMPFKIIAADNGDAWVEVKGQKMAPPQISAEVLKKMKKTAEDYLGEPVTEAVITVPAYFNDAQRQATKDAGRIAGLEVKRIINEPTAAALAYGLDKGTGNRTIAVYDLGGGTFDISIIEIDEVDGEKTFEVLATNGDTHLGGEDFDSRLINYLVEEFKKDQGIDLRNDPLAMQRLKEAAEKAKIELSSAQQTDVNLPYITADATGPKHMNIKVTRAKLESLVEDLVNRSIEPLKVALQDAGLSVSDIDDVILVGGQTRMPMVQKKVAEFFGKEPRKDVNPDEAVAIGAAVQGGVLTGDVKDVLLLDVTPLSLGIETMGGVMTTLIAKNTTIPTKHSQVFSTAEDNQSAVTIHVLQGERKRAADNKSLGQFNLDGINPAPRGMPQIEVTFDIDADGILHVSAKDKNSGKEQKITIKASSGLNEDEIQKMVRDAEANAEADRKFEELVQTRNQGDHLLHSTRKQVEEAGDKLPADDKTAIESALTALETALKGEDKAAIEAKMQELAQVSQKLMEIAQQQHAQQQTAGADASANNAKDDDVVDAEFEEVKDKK
T3 sequence (P0A6Y8 1-388): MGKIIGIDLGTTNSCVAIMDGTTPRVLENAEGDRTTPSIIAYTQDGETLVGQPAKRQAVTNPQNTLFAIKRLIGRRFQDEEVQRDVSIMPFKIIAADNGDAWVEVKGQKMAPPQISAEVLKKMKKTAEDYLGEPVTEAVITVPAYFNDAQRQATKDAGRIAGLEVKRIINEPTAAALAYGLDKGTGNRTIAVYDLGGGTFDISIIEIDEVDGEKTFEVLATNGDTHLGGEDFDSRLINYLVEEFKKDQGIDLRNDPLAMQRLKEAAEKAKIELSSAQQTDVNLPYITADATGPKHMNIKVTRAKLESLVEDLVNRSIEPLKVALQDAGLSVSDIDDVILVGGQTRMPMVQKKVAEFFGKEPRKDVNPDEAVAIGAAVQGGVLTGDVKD

SMILES: c1ccc(CNc2nc(NCc3ccccc3)c3ccccc3n2)cc1 [DBeQ, N^2,N^4-dibenzylquinazoline-2,4-diamine]
- Kd (ClpB W543F): 59.1 ± 4.1 µM
- Bmax (SPR signal at saturation), ClpB W543F (ClpB W543F; SPR): 1.07 ± 0.03
- Hill coefficient, ClpB W543F (ClpB W543F; SPR): 2.4 ± 0.4
- susceptibility of ΔclpB strain on expression of ClpB–YFP [1]: susceptibility to DBeQ was restored
- Bmax (SPR signal at saturation), DnaK (DnaK): 2.07 ± 0.20
- Kd (DnaK; apparent Kd, DBeQ binding to DnaK, SPR, non-cooperative model, approximate, close to ligand solubility limit): 105 µM and ~100 µM
- effect on growth of E. coli (E. coli MC4100; MC4100, 37 °C): suppressed the growth; also recorded: inhibited the growth
- effect on viability of E. coli under heat shock (E. coli MC4100; MC4100, 45 °C): exacerbated by heat shock; also recorded: strongly inhibited
- effect on viability of E. coli at severe heat shock (E. coli MC4100; MC4100, 50 °C): lost viability at the lowest DBeQ concentrations tested
- Kd (DnaK NBD): 95 ± 16 µM
- Bmax (SPR signal at saturation), DnaK NBD (DnaK NBD; SPR): 1.98 ± 0.20
- Bmax (SPR signal at saturation), ClpB (wt ClpB): 1.09 ± 0.02
- Hill coefficient, DBeQ binding to ClpB (wt ClpB; SPR, cooperative binding model): 2.3 ± 0.3 and ~2.3 and > 2
- Kd (wt ClpB; apparent Kd, DBeQ binding to ClpB, SPR, 25 °C, cooperative binding model): 64.4 µM and ~60 µM
